According to patent publication US11427556B2, “Urea derivatives as inhibitors of ASK1” (Hepagene Therapeutics (HK) Limited, priority 2017, dated 2022):

Molecular target: T1, Recombinant human ASK1 kinase (Homo sapiens, UniProt Q99683)
T1 construct: purchased Invitrogen Inc
T1 sequence (Q99683 1-1374): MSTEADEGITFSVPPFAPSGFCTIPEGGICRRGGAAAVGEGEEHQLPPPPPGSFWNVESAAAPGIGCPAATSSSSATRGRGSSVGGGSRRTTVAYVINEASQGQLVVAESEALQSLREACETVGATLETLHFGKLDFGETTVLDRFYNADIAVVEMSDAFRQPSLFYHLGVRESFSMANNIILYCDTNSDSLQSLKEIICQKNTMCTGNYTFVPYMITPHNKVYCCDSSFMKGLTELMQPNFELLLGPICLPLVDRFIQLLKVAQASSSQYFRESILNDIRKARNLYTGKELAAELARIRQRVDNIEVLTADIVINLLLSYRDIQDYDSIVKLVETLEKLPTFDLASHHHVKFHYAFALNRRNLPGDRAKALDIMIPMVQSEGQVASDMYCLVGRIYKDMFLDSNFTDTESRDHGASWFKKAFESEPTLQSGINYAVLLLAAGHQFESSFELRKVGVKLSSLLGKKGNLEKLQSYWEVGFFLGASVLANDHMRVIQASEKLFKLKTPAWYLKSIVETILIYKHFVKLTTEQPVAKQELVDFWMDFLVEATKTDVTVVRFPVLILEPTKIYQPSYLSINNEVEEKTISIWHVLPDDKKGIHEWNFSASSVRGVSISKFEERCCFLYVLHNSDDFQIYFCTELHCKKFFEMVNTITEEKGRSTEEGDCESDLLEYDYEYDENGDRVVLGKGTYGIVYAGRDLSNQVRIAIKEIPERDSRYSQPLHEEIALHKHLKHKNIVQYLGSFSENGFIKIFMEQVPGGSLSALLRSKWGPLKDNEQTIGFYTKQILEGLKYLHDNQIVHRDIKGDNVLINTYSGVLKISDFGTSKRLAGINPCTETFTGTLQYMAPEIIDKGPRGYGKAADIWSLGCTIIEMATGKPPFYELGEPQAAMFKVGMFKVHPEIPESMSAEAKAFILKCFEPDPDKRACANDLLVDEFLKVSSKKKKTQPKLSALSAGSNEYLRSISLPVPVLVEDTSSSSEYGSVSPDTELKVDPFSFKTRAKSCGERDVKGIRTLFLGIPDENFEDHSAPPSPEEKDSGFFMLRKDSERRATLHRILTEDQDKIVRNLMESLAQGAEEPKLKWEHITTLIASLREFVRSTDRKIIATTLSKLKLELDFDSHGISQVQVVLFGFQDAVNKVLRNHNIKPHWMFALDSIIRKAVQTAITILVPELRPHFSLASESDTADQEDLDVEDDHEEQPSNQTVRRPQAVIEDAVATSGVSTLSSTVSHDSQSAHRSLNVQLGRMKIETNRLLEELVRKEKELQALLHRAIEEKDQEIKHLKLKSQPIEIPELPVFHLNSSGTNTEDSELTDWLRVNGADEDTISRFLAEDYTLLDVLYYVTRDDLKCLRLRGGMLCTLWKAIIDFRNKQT
Test: ASK1 kinase HTRF assay (HTRF KinEASE-STK, phosphorylation of biotinylated peptide substrate)
Format: biochemical
Conditions: 3 nM ASK1 kinase, 1 uM STK-substrate-biotin, HTRF detection; read-out: EC50
Method in brief: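 HTRF KinEASE-STK read-out of biotinylated peptide phosphorylation. Compound incubated with 3 nM ASK1 and 1 uM STK-substrate-biotin in kinase buffer containing 5 mM MgCl2 and 1 mM DTT.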

Row | EC50 | SMILES
1 | < 50 nM | CC(C)n1cnnc1-c1cccc(NC(=O)Nc2cc(C(=O)Nc3ccccc3)ccn2)n1 [Compound I-152]
2 | < 50 nM | C[C@H](CO)n1cnnc1-c1cccc(NC(=O)Nc2cc(C(=O)Nc3ccccc3)ccn2)n1 [Compound I-153]
3 | < 50 nM | CC(C)n1cnnc1-c1cccc(NC(=O)Nc2cc(C(=O)Nc3ccc4ccccc4c3)ccn2)n1 [Compound I-154]
4 | < 50 nM | CC(C)n1cnnc1-c1cccc(NC(=O)Nc2cc(C(=O)Nc3ccc(-c4ccccc4)cc3)ccn2)n1 [Compound I-155]
5 | < 50 nM | CC(C)n1cnnc1-c1cccc(NC(=O)Nc2cc(C(=O)Nc3ccccc3F)ccn2)n1 [Compound I-156]
6 | < 50 nM | CC(C)n1cnnc1-c1cccc(NC(=O)Nc2cc(C(=O)Nc3cccc(F)c3)ccn2)n1 [Compound I-157]
7 | < 50 nM | CC(C)n1cnnc1-c1cccc(NC(=O)Nc2cc(C(=O)Nc3ccc(F)cc3)ccn2)n1 [Compound I-158]
8 | < 50 nM | C[C@H](CO)n1cnnc1-c1cccc(NC(=O)Nc2cc(C(=O)Nc3ccc(F)cc3)ccn2)n1 [Compound I-159]
9 | < 50 nM | CC(C)n1cnnc1-c1cccc(NC(=O)Nc2cc(C(=O)Nc3ccc(C(C)(C)C)cc3)ccn2)n1 [Compound I-160]
10 | < 50 nM | CC(C)n1cnnc1-c1cccc(NC(=O)Nc2cc(C(=O)Nc3ccccn3)ccn2)n1 [Compound I-161]
11 | < 50 nM | CC(C)n1cnnc1-c1cccc(NC(=O)Nc2cc(C(=O)Nc3cccnc3)ccn2)n1 [Compound I-162]
12 | < 50 nM | CC(C)n1cnnc1-c1cccc(NC(=O)Nc2cc(C(=O)Nc3ccncc3)ccn2)n1 [Compound I-163]
13 | < 50 nM | C[C@H](CO)n1cnnc1-c1cccc(NC(=O)Nc2cc(C(=O)Nc3ccncc3)ccn2)n1 [Compound I-164]
14 | < 50 nM | CC(C)n1cnnc1-c1cccc(NC(=O)Nc2ccc(N3CCCC3)cn2)n1 [Compound I-165]
15 | 50 to 500 nM | CC(C)n1cnnc1-c1cccc(NC(=O)Nc2cccc(N3CCCC3)n2)n1 [Compound I-166]
16 | < 50 nM | CC(C)n1cnnc1-c1cccc(NC(=O)Nc2cc(N3CCCC3)ccn2)n1 [Compound I-167]
17 | 50 to 500 nM | CC(C)n1cnnc1-c1cccc(NC(=O)Nc2ccc(-n3ccnc3)cn2)n1 [Compound I-168]
18 | < 50 nM | CC(C)n1cnnc1-c1cccc(NC(=O)Nc2ccc(-n3cnc(C4CC4)c3)cn2)n1 [Compound I-169]
19 | < 50 nM | CC(C)n1cnnc1-c1cccc(NC(=O)Nc2cc(-n3cnc(C4CC4)c3)ccn2)n1 [Compound I-170]
20 | 50 to 500 nM | CC(C)n1cnnc1-c1cccc(NC(=O)Nc2cccc(-c3nncn3C(C)C)n2)n1 [Compound I-171]
21 | < 50 nM | CC(C)n1cnnc1-c1cccc(NC(=O)Nc2ncccc2I)n1 [Compound I-172]

Row | EC50 | SMILES
22 | < 50 nM | CC(C)n1cnnc1-c1cccc(NC(=O)Nc2cc(I)ccn2)n1 [Compound I-173]
23 | < 50 nM | CC(C)n1cnnc1-c1cccc(NC(=O)Nc2ccc(I)cn2)n1 [Compound I-174]
24 | < 50 nM | CC(C)n1cnnc1-c1cccc(NC(=O)Nc2cc([N+](=O)[O-])ccn2)n1 [Compound I-175]
25 | < 50 nM | CC(C)n1cnnc1-c1cccc(NC(=O)Nc2ncccc2Br)n1 [Compound I-176]
26 | < 50 nM | CC(C)n1cnnc1-c1cccc(NC(=O)Nc2cc(Br)ccn2)n1 [Compound I-177]
27 | < 50 nM | CC(C)n1cnnc1-c1cccc(NC(=O)Nc2ccc(Br)cn2)n1 [Compound I-178]
28 | < 50 nM | CC(C)n1cnnc1-c1cccc(NC(=O)Nc2cccc(Br)n2)n1 [Compound I-179]
29 | < 50 nM | CC(C)n1cnnc1-c1cccc(NC(=O)Nc2ncccc2Cl)n1 [Compound I-180]
30 | < 50 nM | CC(C)n1cnnc1-c1cccc(NC(=O)Nc2cc(Cl)ccn2)n1 [Compound I-181]
31 | < 50 nM | C[C@H](CO)n1cnnc1-c1cccc(NC(=O)Nc2cc(Cl)ccn2)n1 [Compound I-182]
32 | < 50 nM | C[C@@H](CO)n1cnnc1-c1cccc(NC(=O)Nc2cc(Cl)ccn2)n1 [Compound I-183]
33 | < 50 nM | CC(C)n1cnnc1-c1cccc(NC(=O)Nc2ccc(Cl)cn2)n1 [Compound I-184]
34 | < 50 nM | CC(C)n1cnnc1-c1cccc(NC(=O)Nc2cccc(Cl)n2)n1 [Compound I-185]
35 | < 50 nM | CC(C)n1cnnc1-c1cccc(NC(=O)Nc2ncccc2F)n1 [Compound I-186]
36 | < 50 nM | CC(C)n1cnnc1-c1cccc(NC(=O)Nc2cc(F)ccn2)n1 [Compound I-187]
37 | < 50 nM | CC(C)n1cnnc1-c1cccc(NC(=O)Nc2ccc(F)cn2)n1 [Compound I-188]
38 | < 50 nM | CNc1ccc(NC(=O)Nc2cccc(-c3nncn3C(C)C)n2)nc1 [Compound I-189]
39 | < 50 nM | CNc1ccnc(NC(=O)Nc2cccc(-c3nncn3C(C)C)n2)c1 [Compound I-190]
40 | < 50 nM | CC(C)n1cnnc1-c1cccc(NC(=O)Nc2ccc(N(C)C)cn2)n1 [Compound I-191]
41 | < 50 nM | CC(C)n1cnnc1-c1cccc(NC(=O)Nc2cc(N(C)C)ccn2)n1 [Compound I-192]
42 | < 50 nM | CC(C)n1cnnc1-c1cccc(NC(=O)Nc2ncccc2C(F)(F)F)n1 [Compound I-193]

Row | EC50 | SMILES
43 | < 50 nM | CC(C)n1cnnc1-c1cccc(NC(=O)Nc2ccc(C(F)(F)F)cn2)n1 [Compound I-195]
44 | < 50 nM | CC(C)n1cnnc1-c1cccc(NC(=O)Nc2cccc(C(F)(F)F)n2)n1 [Compound I-196]
45 | < 50 nM | CC(C)n1cnnc1-c1cccc(NC(=O)Nc2cc(C#N)ccn2)n1 [Compound I-198]
46 | < 50 nM | CC(C)n1cnnc1-c1cccc(NC(=O)Nc2ccc(C#N)cn2)n1 [Compound I-199]
47 | < 50 nM | CC(C)n1cnnc1-c1cccc(NC(=O)Nc2cccc(C#N)n2)n1 [Compound I-200]
48 | 50 to 500 nM | CC(C)n1cnnc1-c1cccc(NC(=O)Nc2ncccc2C(=O)O)n1 [Compound I-201]
49 | < 50 nM | CC(C)n1cnnc1-c1cccc(NC(=O)Nc2cc(C(=O)O)ccn2)n1 [Compound I-202, 2-(3-(6-(4-Isopropyl-4H-1,2,4-triazol-3-yl)pyridin-2-yl)ureido)isonicotinic acid]
50 | < 50 nM | CC(C)n1cnnc1-c1cccc(NC(=O)Nc2cc(S(C)(=O)=O)ccn2)n1 [Compound I-204]
51 | < 50 nM | CC(C)n1cnnc1-c1cccc(NC(=O)Nc2cc(S(N)(=O)=O)ccn2)n1 [Compound I-205]
52 | < 50 nM | CC(C)n1cnnc1-c1cccc(NC(=O)Nc2cc(S(=O)(=O)N3CCCCC3)ccn2)n1 [Compound I-206]
53 | < 50 nM | CC(C)n1cnnc1-c1cccc(NC(=O)Nc2cc(S(=O)(=O)N3CCOCC3)ccn2)n1 [Compound I-207]
54 | < 50 nM | CC(C)n1cnnc1-c1cccc(NC(=O)Nc2ccc(CO)cn2)n1 [Compound I-208]
55 | < 50 nM | CC(C)n1cnnc1-c1cccc(NC(=O)Nc2ccc(N)cn2)n1 [Compound I-209]
56 | < 50 nM | CC(C)n1cnnc1-c1cccc(NC(=O)Nc2ccc([N+](=O)[O-])cn2)n1 [Compound I-210]
57 | < 50 nM | Cc1cnc(NC(=O)Nc2cccc(-c3nncn3C(C)C)n2)nc1 [Compound I-211]
58 | < 50 nM | CC(C)n1cnnc1-c1cccc(NC(=O)Nc2ncccn2)n1 [Compound I-212]
59 | < 50 nM | CC(C)n1cnnc1-c1cccc(NC(=O)Nc2cc(C(C)(C)O)ccn2)n1 [Compound I-213]
60 | < 50 nM | CC(C)n1cnnc1-c1cccc(NC(=O)Nc2ccc(C(C)(C)O)cn2)n1 [Compound I-214]
61 | < 50 nM | CC(C)n1cnnc1-c1cccc(NC(=O)Nc2ncco2)n1 [Compound I-215]
62 | < 50 nM | CC(C)n1cnnc1-c1cccc(NC(=O)Nc2nc3ccccc3o2)n1 [Compound I-216]
63 | < 50 nM | C[C@H](CO)n1cnnc1-c1cccc(NC(=O)Nc2nc3ccccc3o2)n1 [Compound I-217]
